# Laboratory results taken from patent US10662229B2, “Spider venom peptides and methods of use for modulating sodium channels” (priority 2016, dated 2020).
# Tests used:
# hNav1.3 [1] = target: T1, hNav1.3 (Homo sapiens, UniProt Q9NY46); experiment: FLIPR membrane potential assay, hNav1.3; assay type: cell-based
# T1 construct: host or cells: HEK293
# Method in brief: (§1)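 Human Nav channels, each stably expressed in HEK293; agonist-evoked depolarisation monitored via red membrane potential dye on FLIPR^TETRA.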
# hNav1.3 [2] = target: T1, hNav1.3; experiment: Automated patch clamping (QPatch-16), hNav1.3; assay type: cell-based; conditions: mean±SEM
# Description: (§2) HEK293 cells stably expressing hNav1.1-1.7 or CHO cells stably expressing hNav1.8 (as described in Example 3 above) were cultured in a T-175 flask in selection antibiotic-free media at 37° C. Cells were grown to 70-80% confluence and harvested using Detachin (Bio-Scientific, NSW, Australia) at 37° C. for 2 min. Dissociated cells were then resuspended in Ex-Cell ACF CHO Medium with HEPES (25 mM; Sigma-Aldrich Co.) and allowed to recover on the QStirrer for 30 min.
# (§3) The extracellular solution contained in mM: NaCl 145, KCl 4, CaCl2 2, MgCl2 1, HEPES 10 and glucose 10. The pH was adjusted to 7.4 with NaOH and osmolarity was adjusted with sucrose to 305 mOsm. The intracellular solution contained in mM: CsF 140, ethylene glycol tetraacetic acid (EGTA)/CsOH 1/5, HEPES 10 and NaCl 10. The pH was adjusted to 7.3 with CsOH and osmolarity adjusted with sucrose to 320 mOsm. […]
# (§4) The current-voltage (IV) curve was constructed with a holding potential of −80 mV followed by a pre-pulse of −100 mV for 50 ms and a series of 50 ms step pulses that ranged from −80 to 50 mV in 5 mV increments before returning to a holding potential of −80 mV. Voltage-dependence of activation was determined as normalized Nav conductance (GNa) using: GNa=INa/(Vmemb−Vrev), where Vmemb is the membrane potential and Vrev is the reversal potential for each cell. […]
# hNav1.1 [3] = target: T2, hNav1.1 (Homo sapiens, UniProt P35498); experiment: Automated patch clamping (QPatch-16), hNav1.1; assay type: cell-based; conditions: mean±SEM
# T2 construct: host or cells: HEK293
# Description: as §2, §3, §4
# hNav1.4 = target: T3, hNav1.4 (Homo sapiens, UniProt P35499); experiment: FLIPR membrane potential assay, hNav1.4; assay type: cell-based
# T3 construct: host or cells: HEK293
# Method in brief: as §1
# [4] = tested on: burns-induced pain in mice; experiment: Burns-induced pain; assay type: in vivo; conditions: intraplantar, 3 days after burns injury
# Description: For behavioural assessment adult male C57BL/6J mice aged 6-8 weeks were used. Animals were housed in groups of 3 or 4 per cage, under 12 h light-dark cycles and had standard rodent chow and water ad libitum.
# To induce a mild burn injury, the plantar skin of the left hind paw of mice was applied with firm pressure to a Peltier plate (Hot/Cold Plate, Ugo Basile, Comerio, Italy) set at 52.5° C. for 25 s under light isoflurane (3%) anaesthesia. Behavioural assessment (mechanical and thermal thresholds) was performed 3 days after the burns injury.
# Mechanical allodynia was assessed using an electronic von Frey apparatus (MouseMet Electronic von Frey, TopCat Metrology Ltd, United Kingdom). […] The force that elicited paw withdrawal was calculated using the MouseMet Software. The paw withdrawal force (PWF) was determined from the average of three tests, separated by at least 2 min.
# Mice were habituated in individual mouse runs for at least 5 min prior to testing. […] Removal of the paw and/or the probe by the investigator terminates heating, and triggers display of the withdrawal temperature on the readout, without the need for the investigator to manually stop the heating or record the temperature, until the reset button is pressed. The temperature that elicited a paw withdrawal, known as the paw withdrawal temperature (PWT), was determined by a single test.
# hNav1.6 = target: T4, hNav1.6 (Homo sapiens, UniProt Q9UQD0); experiment: FLIPR membrane potential assay, hNav1.6; assay type: cell-based
# T4 construct: host or cells: HEK293
# Method in brief: as §1
# hNav1.1 [5] = target: T2, hNav1.1; experiment: FLIPR membrane potential assay, hNav1.1; assay type: cell-based
# Method in brief: as §1
# hNav1.5 = target: T5, hNav1.5 (Homo sapiens, UniProt Q14524); experiment: FLIPR membrane potential assay, hNav1.5; assay type: cell-based
# T5 construct: host or cells: HEK293
# Method in brief: as §1
# hNav1.2 = target: T6, hNav1.2 (Homo sapiens, UniProt Q99250); experiment: FLIPR membrane potential assay, hNav1.2; assay type: cell-based
# T6 construct: host or cells: HEK293
# Method in brief: as §1
# T1 sequence (Q9NY46 whole entry): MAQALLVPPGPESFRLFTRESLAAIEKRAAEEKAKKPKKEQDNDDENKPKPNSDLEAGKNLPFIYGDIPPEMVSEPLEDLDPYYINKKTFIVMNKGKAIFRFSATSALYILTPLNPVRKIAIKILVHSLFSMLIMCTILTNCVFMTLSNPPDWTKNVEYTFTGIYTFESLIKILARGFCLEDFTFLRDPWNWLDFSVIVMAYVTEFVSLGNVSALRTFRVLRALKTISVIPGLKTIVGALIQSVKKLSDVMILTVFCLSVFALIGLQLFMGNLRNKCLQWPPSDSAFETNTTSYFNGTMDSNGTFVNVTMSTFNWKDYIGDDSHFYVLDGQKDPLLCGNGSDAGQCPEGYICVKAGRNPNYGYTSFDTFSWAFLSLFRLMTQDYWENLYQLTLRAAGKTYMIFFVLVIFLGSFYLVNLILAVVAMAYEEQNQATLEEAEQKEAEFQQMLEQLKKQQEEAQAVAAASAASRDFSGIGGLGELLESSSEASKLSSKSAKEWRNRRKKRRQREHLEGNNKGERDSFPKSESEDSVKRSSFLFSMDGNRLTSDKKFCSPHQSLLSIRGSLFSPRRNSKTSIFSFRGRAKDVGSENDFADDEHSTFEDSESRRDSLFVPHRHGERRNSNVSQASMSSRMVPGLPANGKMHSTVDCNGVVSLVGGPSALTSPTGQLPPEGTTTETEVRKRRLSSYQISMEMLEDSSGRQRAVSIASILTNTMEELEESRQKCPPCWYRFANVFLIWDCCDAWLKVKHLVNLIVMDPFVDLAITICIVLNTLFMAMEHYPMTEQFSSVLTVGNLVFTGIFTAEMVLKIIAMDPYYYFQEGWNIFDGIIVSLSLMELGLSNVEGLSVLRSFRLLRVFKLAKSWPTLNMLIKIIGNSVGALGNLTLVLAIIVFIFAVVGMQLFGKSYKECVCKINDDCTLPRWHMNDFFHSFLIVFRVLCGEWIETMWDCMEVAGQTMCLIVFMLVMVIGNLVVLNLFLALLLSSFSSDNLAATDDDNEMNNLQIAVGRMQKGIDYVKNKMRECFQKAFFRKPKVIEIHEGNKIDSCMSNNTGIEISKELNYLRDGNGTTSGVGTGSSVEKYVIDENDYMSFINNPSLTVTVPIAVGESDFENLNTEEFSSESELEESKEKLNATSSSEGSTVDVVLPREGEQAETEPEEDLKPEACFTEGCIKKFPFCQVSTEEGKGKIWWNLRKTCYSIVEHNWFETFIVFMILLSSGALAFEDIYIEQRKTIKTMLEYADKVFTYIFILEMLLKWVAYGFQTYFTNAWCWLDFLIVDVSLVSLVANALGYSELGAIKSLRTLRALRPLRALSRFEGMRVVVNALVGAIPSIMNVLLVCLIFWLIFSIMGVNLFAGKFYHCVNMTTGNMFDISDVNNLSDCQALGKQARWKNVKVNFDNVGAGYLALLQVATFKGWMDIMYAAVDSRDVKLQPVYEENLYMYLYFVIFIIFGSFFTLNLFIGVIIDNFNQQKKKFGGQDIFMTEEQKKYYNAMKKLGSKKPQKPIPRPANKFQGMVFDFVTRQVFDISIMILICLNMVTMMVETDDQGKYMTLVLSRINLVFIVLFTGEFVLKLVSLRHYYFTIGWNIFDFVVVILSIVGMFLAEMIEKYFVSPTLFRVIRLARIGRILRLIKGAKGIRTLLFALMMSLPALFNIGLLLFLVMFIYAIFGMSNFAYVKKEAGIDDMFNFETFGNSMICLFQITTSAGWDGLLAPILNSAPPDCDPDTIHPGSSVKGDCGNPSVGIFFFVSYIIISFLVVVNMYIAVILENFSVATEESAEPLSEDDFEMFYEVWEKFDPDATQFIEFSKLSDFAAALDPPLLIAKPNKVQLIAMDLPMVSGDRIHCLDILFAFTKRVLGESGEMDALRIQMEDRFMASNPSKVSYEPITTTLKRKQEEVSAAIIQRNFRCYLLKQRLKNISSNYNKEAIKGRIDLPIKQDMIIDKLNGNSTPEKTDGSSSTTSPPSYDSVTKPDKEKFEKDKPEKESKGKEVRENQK
# T3 sequence (P35499 whole entry): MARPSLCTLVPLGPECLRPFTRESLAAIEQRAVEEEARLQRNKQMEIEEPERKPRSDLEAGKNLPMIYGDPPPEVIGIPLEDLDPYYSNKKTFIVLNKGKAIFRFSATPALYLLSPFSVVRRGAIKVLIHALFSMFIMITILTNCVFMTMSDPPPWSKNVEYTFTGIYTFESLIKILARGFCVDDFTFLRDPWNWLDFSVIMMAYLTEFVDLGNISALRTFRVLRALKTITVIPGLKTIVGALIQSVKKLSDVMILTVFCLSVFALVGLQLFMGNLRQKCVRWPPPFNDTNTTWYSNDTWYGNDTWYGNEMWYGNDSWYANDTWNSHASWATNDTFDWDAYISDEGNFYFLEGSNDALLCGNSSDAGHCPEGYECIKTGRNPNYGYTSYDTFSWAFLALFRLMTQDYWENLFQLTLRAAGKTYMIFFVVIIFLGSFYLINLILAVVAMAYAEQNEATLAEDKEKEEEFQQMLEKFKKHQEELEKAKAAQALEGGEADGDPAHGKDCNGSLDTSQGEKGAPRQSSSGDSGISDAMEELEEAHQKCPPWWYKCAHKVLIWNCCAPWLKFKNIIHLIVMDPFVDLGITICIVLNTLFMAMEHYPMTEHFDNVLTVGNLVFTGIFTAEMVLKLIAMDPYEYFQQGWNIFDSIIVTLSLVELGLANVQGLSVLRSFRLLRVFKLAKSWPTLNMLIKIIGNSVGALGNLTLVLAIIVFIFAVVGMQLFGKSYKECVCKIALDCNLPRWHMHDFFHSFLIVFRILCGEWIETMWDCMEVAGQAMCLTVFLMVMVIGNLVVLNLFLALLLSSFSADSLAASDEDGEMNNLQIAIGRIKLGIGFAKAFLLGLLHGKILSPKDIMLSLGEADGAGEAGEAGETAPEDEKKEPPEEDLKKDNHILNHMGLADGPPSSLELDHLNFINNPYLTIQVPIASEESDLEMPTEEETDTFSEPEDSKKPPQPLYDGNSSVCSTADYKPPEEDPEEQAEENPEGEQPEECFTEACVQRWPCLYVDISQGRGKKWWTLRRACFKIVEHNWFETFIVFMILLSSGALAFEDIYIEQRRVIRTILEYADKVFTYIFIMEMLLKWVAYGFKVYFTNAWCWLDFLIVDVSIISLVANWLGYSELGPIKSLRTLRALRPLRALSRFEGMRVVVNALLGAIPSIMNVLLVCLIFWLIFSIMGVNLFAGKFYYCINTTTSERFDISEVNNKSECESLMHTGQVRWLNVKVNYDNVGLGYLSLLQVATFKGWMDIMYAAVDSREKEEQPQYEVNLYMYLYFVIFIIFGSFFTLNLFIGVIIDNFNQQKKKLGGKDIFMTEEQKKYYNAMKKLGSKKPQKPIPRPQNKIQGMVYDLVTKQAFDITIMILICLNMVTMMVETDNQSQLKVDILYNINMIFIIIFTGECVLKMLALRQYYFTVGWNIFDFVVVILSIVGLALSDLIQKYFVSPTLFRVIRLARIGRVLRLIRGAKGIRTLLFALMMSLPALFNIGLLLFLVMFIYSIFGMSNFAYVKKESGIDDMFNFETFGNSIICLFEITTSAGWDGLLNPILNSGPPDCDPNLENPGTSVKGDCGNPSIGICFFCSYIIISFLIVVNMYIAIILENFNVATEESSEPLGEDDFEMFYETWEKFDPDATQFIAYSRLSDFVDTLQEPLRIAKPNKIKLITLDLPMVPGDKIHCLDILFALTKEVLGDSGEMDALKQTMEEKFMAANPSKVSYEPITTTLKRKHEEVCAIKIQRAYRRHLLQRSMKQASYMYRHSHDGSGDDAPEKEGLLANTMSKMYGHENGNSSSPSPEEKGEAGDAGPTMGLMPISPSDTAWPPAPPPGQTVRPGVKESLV
smiles,measurement,setting,value
CSCC[C@@H]1NC(=O)[C@H](Cc2ccc(O)cc2)NC(=O)[C@H](CCCNC(=N)N)NC(=O)[C@@H](NC(=O)[C@@H](N)CC(=O)O)CSSC[C@@H]2NC(=O)[C@@H]3CSSC[C@@H](C(=O)N[C@@H](C)C(=O)N[C@@H](Cc4c[nH]c5ccccc45)C(=O)N[C@@H](CC(=O)O)C(=O)N[C@@H](Cc4ccccc4)C(=O)N[C@H](C(=O)N[C@@H](Cc4ccccc4)C(=O)N[C@H](C(=O)O)[C@@H](C)O)[C@@H](C)O)NC(=O)[C@H](Cc4ccc(O)cc4)NC(=O)[C@H](CCCCN)NC(=O)[C@H](CCSC)NC(=O)[C@H](CCCCN)NC(=O)[C@H](CCCNC(=N)N)NC(=O)[C@H](CCCCN)NC(=O)[C@H](CSSC[C@H](NC(=O)[C@H](CC(=O)O)NC(=O)CNC(=O)[C@H](Cc4ccccc4)NC1=O)C(=O)N[C@@H](CCC(=O)O)C(=O)N[C@@H](CCCCN)C(=O)N[C@@H](CC(=O)O)C(=O)N[C@@H](CCC(=O)O)C(=O)N[C@@H](CC(=O)O)C(=O)N3)NC(=O)CNC(=O)[C@H](CC(C)C)NC(=O)[C@H](Cc1cnc[nH]1)NC(=O)[C@H](CCCCN)NC2=O [Pnc1a],IC50,hNav1.3 [1],8.13 µM
same,pIC50 Nav1.3,hNav1.3 [2],6.68±0.1 M
same,pIC50 Nav1.1,hNav1.1 [3],7.43±0.1 M
same,IC50,hNav1.4,11.2 µM
same,mechanical threshold of the injured paw,[4],no significant effect
same,thermal threshold of the injured paw,[4],significantly increased
same,IC50,hNav1.6,18.6 µM
same,IC50,hNav1.1 [5],13.2 µM
same,IC50,hNav1.5,85.1 µM
same,IC50,hNav1.2,2.95 µM
